Test results published in patent publication US8163777B2, “Benzimidazolyl-pyridine compounds for inflammation and immune-related uses” (Synta Pharmaceuticals Corp., priority 2006, dated 2012).

The molecules below were run on IL-2 production (assay: Inhibition of IL-2 production in PHA-activated Jurkat cells (ELISA)). Conditions: Homo sapiens, PHA 2.5 μg/mL, 20 hours, bin given with mixed units 500 nM-1 μM.
Format: cell-based
Procedure: Jurkat cells were placed in a 96 well plate (0.5 million cells per well in 1% FBS medium) then test compounds of this invention were added at different concentrations. After 10 minutes, the cells were activated with PHA (final concentration 2.5 μg/mL) and incubated for 20 hours at 37° C. under CO2. The final volume was 200 μL. Following incubation, the cells were centrifuged and the supernatants collected and stored at −70° C. prior to assaying for IL-2 production. A commercial ELISA kit (IL-2 Eli-pair, Diaclone Research, Besancon, France) was used to detect production of IL-2, from which dose response curves were obtained. The IC50 value was calculated as the concentration at which 50% of maximum IL-2 production after stimulation was inhibited versus a non-stimulation control.
Molecule O=C(Nc1ccc(-n2c(C(F)(F)F)nc3ccccc32)nc1)c1cc(F)ccc1F [Compound 41, 2,5-Difiuoro-N-[2-(2-trifluoromethyl-benzoimidazol-1-yl)-pyrid-5-yl]-benzamide] has an IC50 of 0.5 to 1 µM. Cc1cc2nc(C(F)(F)F)n(-c3ccc(NC(=O)c4cccc(F)c4F)cc3)c2cc1C [Compound 42, 2,3-Difluoro-N-[4-(2-trifluoromethyl-5,6-dimethyl-benzoimidazol-1-yl)-phenyl]-benzamide] gave an IC50 of 0.5 to 1 µM. In the case of Nc1ccc(C(=O)Nc2ccc(-n3c(C(F)(F)F)nc4ccccc43)cc2)c(F)c1F [Compound 43, 2,3-Difluoro-4-amino-N-[4-(2-trifluoromethyl-benzoimidazol-1-yl)-phenyl]-benzamide], the IC50 is reported as 0.5 to 1 µM. O=C(Nc1ccc(-n2c(C(F)(F)F)nc3cccnc32)cc1)c1cccc(F)c1F [Compound 44, 2,3-Difluoro-N-[4-(2-trifiuoromethyl-imidazo[4,5-b]pyrid-3-yl)-phenyl]-benzamide] was tested, and the IC50 was 0.5 to 1 µM. O=C(Nc1ccc(-n2c(C(F)(F)F)nc3ccccc32)cc1)c1cccnc1 [Compound 45, N-[4-(2-trifiuoromethyl-benzoimidazol-1-yl)-phenyl]-nicotinamide] showed an IC50 of 0.5 to 1 µM. Work on O=C(Nc1cccc(F)c1F)c1ccc(-n2c(C(F)(F)F)nc3ccccc32)cc1 [Compound 46, N-(2,3-difluorophenyl)-4-(2-trifluoromethyl-benzoimidazol-1-yl)-benzamide] yielded an IC50 of 0.5 to 1 µM. N#C/C(=C\c1ccc(-n2c(C(F)(F)F)nc3ccccc32)cc1)c1cccc(F)c1F [Compound 47, 1-(2,3-difluoro-phenyl)-3-[4-(2-trifluoromethyl-benzoimidazol-1-yl)-phenyl]-acrylonitrile] gave an IC50 of 0.5 to 1 µM. With N#C/C(=C\c1ccc(-n2c(C(F)(F)F)nc3ccccc32)cc1)c1cc(F)ccc1F [Compound 48, 1-(2,5-difluoro-phenyl)-3-[4-(2-trifluoromethyl-benzoimidazol-1-yl)-phenyl]-acrylonitrile] the IC50 was 0.5 to 1 µM. For O=C(Nc1ccc(-n2c(C(F)(F)F)nc3cccnc32)cc1)c1cc(F)ccc1F [Compound 56, 2,5-Difluoro-N-[4-(2-trifluoromethyl-imidazo[4,5-b]pyrid-3-yl)-phenyl]-benzamide], the IC50 was 0.5 to 1 µM. Work on COc1ccc2c(c1)nc(C(F)(F)F)n2-c1ccc(NC(=O)c2cccc(C(F)(F)F)c2)cc1 [Compound 91, 3-Trifluoromethyl-N-[4-(2-trifluoromethyl-5-methoxy-benzoimidazol-1-yl)-phenyl]-benzamide] yielded an IC50 of 0.5 to 1 µM. With COc1ccc(CC(=O)Nc2ccc(-n3c(C(F)(F)F)nc4cc(OC)ccc43)cc2)cc1 [Compound 92, 2-(4-Methoxy-phenyl)-N-[4-(2-trifluoromethyl-5-methoxy-benzoimidazol-1-yl)-phenyl]-acetamide] the IC50 was 0.5 to 1 µM. In the case of CC(=O)Nc1ccc2nc(C(F)(F)F)n(-c3ccc(NC(=O)c4cccc(F)c4F)cc3)c2c1 [Compound 93, 2,3-Difluoro-N-[4-(2-trifluoromethyl-6-acetylamino-benzoimidazol-1-yl)-phenyl]-benzamide], the IC50 is reported as 0.5 to 1 µM. COc1ccc2c(c1)nc(C(F)(F)F)n2-c1ccc(NC(=O)Cc2cccs2)cc1 [Compound 94, 2-(Thien-2-yl)-N-[4-(2-trifluoromethyl-5-methoxy-benzoimidazol-1-yl)-phenyl]-acetamide] was tested, and the IC50 was 0.5 to 1 µM. Work on COc1ccc2c(c1)nc(C(F)(F)F)n2-c1ccc(NC(=O)Cc2ccccc2)cc1 [Compound 95, 2-phenyl-N-[4-(2-trifluoromethyl-5-methoxy-benzoimidazol-1-yl)-phenyl]-acetamide] yielded an IC50 of 0.5 to 1 µM. In the case of COc1ccc2c(c1)nc(C(F)(F)F)n2-c1ccc(NC(=O)C2CCC2)nc1 [Compound 169, Cyclobutanecarboxylic acid [5-(5-methox-2-trifluoromethyl-benzoimidazol-1-yl)-pyridin-2-yl]-amide], the IC50 is reported as 0.5 to 1 µM. COc1ccc2c(c1)nc(C(F)(F)F)n2-c1ccc(NC(=O)c2ccc(Cl)cc2)nc1 [Compound 171, 4-Chloro-N-[5-(5-methoxy-2-trifluoromethyl-benzoimidazol-1-yl)-pyridin-2-yl]-benzamide] was tested, and the IC50 was 0.5 to 1 µM. COc1ccc2c(c1)nc(C(F)(F)F)n2-c1ccc(NC(=O)c2ccc(I)cc2)nc1 [Compound 182, 4-Iodo-N-[5-(5-methoxy-2-trifluoromethyl-benzoimidazol-1-yl)-pyridin-2-yl]-benzamide] gave an IC50 of 0.5 to 1 µM.

Same assay, conditions: Homo sapiens, PHA 2.5 μg/mL, 20 hours, binned values
Molecule O=C(Nc1ccc(-n2c(C(F)(F)F)nc3ccccc32)c(Cl)c1)c1cccc(F)c1F [Compound 25, 2,3-Difluoro-N-[2-.chloro-4-(2-trifluoromethyl-benzoimidazol-1-yl)-phenyl]-benzamide] has an IC50 of 0.1 to 0.5 µM. With Cc1nc2ccccc2n1-c1ccc(NC(=O)c2cccc(F)c2F)cc1 [Compound 59, 2,3-Difluoro-N-[4-(2-methyl-benzoimidazol-1-yl)-phenyl]-benzamide] the IC50 was greater than 1 µM. For COc1ccc2c(c1)nc(C(F)(F)F)n2-c1ccc(NC(=O)c2cc([N+](=O)[O-])cc([N+](=O)[O-])c2)cc1 [Compound 81, 3,5-Dinitro-N-[4-(2-trifluoromethyl-5-methoxy-benzoimidazol-1-yl)-phenyl]-benzamide], the IC50 was 0.1 to 0.5 µM. CCNc1ccc(-n2c(C(F)(F)F)nc3cc(OC)ccc32)nc1 [Compound 162, Ethyl-[6-(5-methoxy-2-trifluoromethyl-benzoimidazol-1-yl)-pyridin-3-yl]-amine] was tested, and the IC50 was greater than 1 µM. With COc1ccc2c(c1)nc(C(F)(F)F)n2-c1ccc(NC(=O)c2c(F)cccc2F)nc1 [Compound 163, 2,6-difluoro-N-(5-(5-methoxy-2-(trifluoromethyl)-1H-benzo[d]imidazol-1-yl)pyridin-2-yl)benzamide] the IC50 was less than 0.1 µM. Work on COc1ccc2c(c1)nc(C(F)(F)F)n2-c1ccc(NC(C)=O)nc1 [Compound 164, N-[5-(5-Methoxy-2-trifluoromethyl-benzoimidazol-1-yl)-pyridin-2-yl]-acetamide] yielded an IC50 greater than 1 µM. For CCCCNc1ccc(-n2c(C(F)(F)F)nc3cc(OC)ccc32)cn1 [Compound 165, Butyl[5-(5-methoxy-2-trifluoromethyl-benzoimidazol-1-yl)-pyridin-2-yl]-amine], the IC50 was 0.1 to 0.5 µM. In the case of COc1ccc2c(c1)nc(C(F)(F)F)n2-c1ccc(NC(=O)c2ccc(C#N)cc2)nc1 [Compound 166, 4-Cyano-N-[5-(5-methoxy-2-trifluoromethyl-benzoimidazol-1-yl)-pyridin-2-yl]-benzamide], the IC50 is reported as 0.1 to 0.5 µM. CCCC(=O)Nc1ccc(-n2c(C(F)(F)F)nc3cc(OC)ccc32)cn1 [Compound 167, N-[5-(5-Methoxy-2-trifluoromethyl-benzoimidazol-1-yl)-pyridin-2-yl]-butyramide] gave an IC50 of 0.1 to 0.5 µM. CCC(C)C(=O)Nc1ccc(-n2c(C(F)(F)F)nc3cc(OC)ccc32)cn1 (centres unmarked) [Compound 168, N-[5-(5-Methoxy-2-trifluoromethyl-benzoimidazol-1-yl)-pyridin-2-yl]-2-methyl-butyramide] was tested, and the IC50 was 0.1 to 0.5 µM. Work on COc1ccc2c(c1)nc(C(F)(F)F)n2-c1ccc(NC(=O)c2ccc(F)cc2)nc1 [Compound 170, 4-Fluoro-N-[5-(5-methoxy-2-trifluoromethyl-benzoimidazol-1-yl)-pyridin-2-yl]-benzamide] yielded an IC50 of 0.1 to 0.5 µM. COc1ccc2c(c1)nc(C(F)(F)F)n2-c1ccc(NC(=O)C2CC2)nc1 [Compound 172, Cyclopropanecarboxylic acid [5-(5-methoxy-2-trifluoromethyl-benzoimidazol-1-yl)-pyridin-2-yl]-amide] was tested, and the IC50 was greater than 1 µM. In the case of COc1ccc2c(c1)nc(C(F)(F)F)n2-c1ccc(NC(=O)c2c(F)cccc2Cl)nc1 [Compound 173, 2-Chloro-6-fluoro-N-[5-(5-methoxy-2-trifluoromethyl-benzoimidazol-1-yl)-pyridin-2-yl]-benzamide], the IC50 is reported as less than 0.1 µM. Work on COc1ccc2c(c1)nc(C(F)(F)F)n2-c1ccc(NC(=O)c2cccc(Cl)c2Cl)nc1 [Compound 174, 2,3-Dichloro-N-[5-(5-methoxy-2-trifluoromethyl-benzoimidazol-1-yl)-pyridin-2-yl]-benzamide] yielded an IC50 of less than 0.1 µM. Molecule COc1ccc2c(c1)nc(C(F)(F)F)n2-c1ccc(NC(=O)c2ccc(F)cc2F)nc1 [Compound 175] has an IC50 of less than 0.1 µM. Work on COc1ccc2c(c1)nc(C(F)(F)F)n2-c1ccc(NC(=O)c2ccc(Cl)cc2Cl)nc1 [Compound 176, 2,4-Dichloro-N-[5-(5-methoxy-2-trifluoromethyl-benzoimidazol-1-yl)-pyridin-2-yl]-benzamide] yielded an IC50 of less than 0.1 µM. COc1ccc2c(c1)nc(C(F)(F)F)n2-c1ccc(NC(=O)c2ccc(Cl)cc2F)nc1 [Compound 177, 4-Chloro-2-fluoro-N-[5-(5-methoxy-2-trifluoromethyl-benzoimidazol-1-yl)-pyridin-2-yl]-benzamide] was tested, and the IC50 was 0.1 to 0.5 µM. COc1ccc2c(c1)nc(C(F)(F)F)n2-c1ccc(NC(=O)c2ccccc2Cl)nc1 [Compound 178, 2-Chloro-N-[5-(5-methoxy-2-trifluoromethyl-benzoimidazol-1-yl)-pyridin-2-yl]-benzamide] was tested, and the IC50 was less than 0.1 µM. Work on COc1ccc2c(c1)nc(C(F)(F)F)n2-c1ccc(NC(=O)c2cccc(Cl)c2)nc1 [Compound 179, 3-Chloro-N-[5-(5-methoxy-2-trifluoromethyl-benzoimidazol-1-yl)-pyridin-2-yl]-benzamide] yielded an IC50 of 0.1 to 0.5 µM. COc1ccc2c(c1)nc(C(F)(F)F)n2-c1ccc(NC(=O)c2ccccc2Br)nc1 [Compound 180, 2-Bromo-N-[5-(5-methoxy-2-trifluoromethyl-benzoimidazol-1-yl)-pyridin-2-yl]-benzamide] was tested, and the IC50 was less than 0.1 µM. COc1ccc2c(c1)nc(C(F)(F)F)n2-c1ccc(NC(=O)c2cccc(I)c2)nc1 [Compound 181, 3-Iodo-N-[5-(5-methoxy-2-trifluoromethyl-benzoimidazol-1-yl)-pyridin-2-yl]-benzamide] gave an IC50 greater than 1 µM.
